According to patent US8937091B2 (Japan Science and Technology Agency, priority 2009, dated 2015):
Where two headings read alike, the source gives them in different places.

How the values were obtained:
TGase = TGase (Cavia porcellus, UniProt P08587); type: biochemical; conditions: for TG level: level with DMSO control designated as 100
Protocol: An enzyme reaction solution (0.1 ml) (100 mM HEPES-NaOH, pH 7.5, 1 mM CaCl2, 20 μM monodansyl cadaverine, 0.05 mg/ml N,N-dimethylcasein, 5 μg/ml TGase) was introduced into wells of a 96-well plate (Nunc, 96 Well Black Plate with Clear Bottom). A test compound was added in concentrations of 0.3, 1.0, 3.0, 10, and 30 μM. The solution and the compound were sufficiently mixed while preventing foaming. The plate was set in the fluorescence drug screening system FDSS 3000 (Hamamatsu Photonics K.K.). TGase-inhibiting activity of the compound was calculated by assaying changes in fluorescence wavelength (at 340 nm) per unit time. […] The assay level at which TGase activity decreased by half in the presence of the test compound was designated as TG 50.
Hereafter, the numerals in parentheses written after the TG level, the SOCE level, and the IICR level correspond to the test compound concentrations. The number following the name of each title compound used in the Examples below represents a compound ID number designated arbitrarily by the present inventors.

[1] = tested on: IICR (IP3 induced calcium release) in CHO cells; test: Assay of IICR (IP3 induced calcium release)-inhibiting action; type: cell-based, Chinese hamster; conditions: for inhibition at 10 µM / inhibition at 30 µM / inhibition at 100 µM: Cricetulus griseus, CHO, CHO cells, 10 μM ATP, read-out: IICR level (percentage of inhibition); for inhibition at 10 µM: test compound 10 μmol; for inhibition at 30 µM: test compound 30 μmol; for inhibition at 100 µM: test compound 100 μmol
In short: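 CHO cell medium replaced with calcium-containing BSS; compound added 1 min later, then 10 μM ATP after a further 2 min. Percent inhibition of the ATP-evoked rise in intracellular calcium determined at each compound concentration.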

[2] = tested on: SOCE (store operated calcium entry) in CHO cells; test: Assay of SOCE (store operated calcium entry)-inhibiting action; type: cell-based, Chinese hamster; conditions: Cricetulus griseus, CHO, CHO cells, thapsigargin, read-out: SOCE level (percentage of inhibition); for inhibition at 10 µM: test compound 10 μmol; for inhibition at 30 µM: test compound 30 μmol; for inhibition at 100 µM: test compound 100 μmol
In short: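 CHO cells in calcium-free BSS received compound, then 1 μM thapsigargin 2 min later to deplete stores; after 9 min, 2 mM calcium chloride (final) added. Percent inhibition of the rise in intracellular calcium determined at various compound concentrations.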

Compound: 2-(N-2-hydroxy-3-aminopropyl)aminoethyl-5-bromo-2-thienylketone [Example 8853]
- TG-activity-inhibiting action or protein-crosslinking-inhibiting action (in words) (TGase): strongly
- IICR-inhibiting activity compared with SOCE-inhibiting activity (in words) [1]: higher than SOCE-inhibiting activity

Compound: CC(C)N(CCC(=O)c1ccncc1)C(C)C [Example 397, 2-diisopropylaminoethyl-4-pyridylketone]
- inhibition at 10 µM [2]: 20%
- inhibition at 30 µM [2]: 40%
- inhibition at 100 µM [2]: 50%
- inhibition at 10 µM [1]: 0%
- inhibition at 30 µM [1]: 0%
- inhibition at 100 µM [1]: 10%

Compound: N#Cc1ccc(C(=O)CCNCCSSCCNCCC(=O)c2ccc(C#N)cc2)cc1 [Example 398]
- inhibition at 10 µM [2]: 20%
- inhibition at 30 µM [2]: 40%
- inhibition at 100 µM [2]: 50%
- inhibition at 10 µM [1]: 1%
- inhibition at 30 µM [1]: 44%
- inhibition at 100 µM [1]: 80%

Compound: COC(=O)C(CSSCC(NCCC(=O)c1ccc(C#N)cc1)C(=O)OC)NCCC(=O)c1ccc(C#N)cc1 (stereo not drawn) [Example 399, N,N-bis(4-cyanobenzoylethyl)cystinemethylester]
- inhibition at 10 µM [2]: 20%
- inhibition at 30 µM [2]: 40%
- inhibition at 100 µM [2]: 50%
- inhibition at 10 µM [1]: 0%
- inhibition at 30 µM [1]: 0%
- inhibition at 100 µM [1]: 70%

Compound: COC(=O)C(CSSCC(NCCC(=O)c1nccs1)C(=O)OC)NCCC(=O)c1nccs1 (stereo not drawn) [Example 400]
- inhibition at 10 µM [2]: 20%
- inhibition at 30 µM [2]: 40%
- inhibition at 100 µM [2]: 50%
- inhibition at 10 µM [1]: 19%
- inhibition at 30 µM [1]: 0%
- inhibition at 100 µM [1]: 13%

Compound: COC(=O)C(CSSCC(NCCC(=O)c1ccco1)C(=O)OC)NCCC(=O)c1ccco1 (stereo not drawn) [Example 401, N,N-bis(2-furoylethyl)cystinemethylester]
- inhibition at 10 µM [2]: 20%
- inhibition at 30 µM [2]: 40%
- inhibition at 100 µM [2]: 50%
- inhibition at 10 µM [1]: 31%
- inhibition at 30 µM [1]: 1%
- inhibition at 100 µM [1]: 57%

Compound: COC(=O)C(CSSCC(NCCC(=O)c1cnccn1)C(=O)OC)NCCC(=O)c1cnccn1 (stereo not drawn) [Example 402, N,N-bis(2-pyrazinoylethyl)cystinemethylester]
- inhibition at 10 µM [2]: 20%
- inhibition at 30 µM [2]: 40%
- inhibition at 100 µM [2]: 50%
- inhibition at 10 µM [1]: 39%
- inhibition at 30 µM [1]: 12%
- inhibition at 100 µM [1]: 28%

Compound: COC(=O)C(CSSCC(NCCC(=O)c1ccc(C)s1)C(=O)OC)NCCC(=O)c1ccc(C)s1 (stereo not drawn) [Example 403, N,N-bis(2-(5-methyl-2-thiophenoyl)ethyl)cystinemethylester]
- inhibition at 10 µM [2]: 20%
- inhibition at 30 µM [2]: 40%
- inhibition at 100 µM [2]: 50%
- inhibition at 10 µM [1]: 57%
- inhibition at 30 µM [1]: 17%
- inhibition at 100 µM [1]: 83%

Compound: COC(=O)C(CSSCC(NCCC(=O)c1ccc2c(c1)Cc1ccccc1-2)C(=O)OC)NCCC(=O)c1ccc2c(c1)Cc1ccccc1-2 (stereo not drawn) [Example 404]
- inhibition at 10 µM [2]: 20%
- inhibition at 30 µM [2]: 40%
- inhibition at 100 µM [2]: 50%
- inhibition at 10 µM [1]: 54%
- inhibition at 30 µM [1]: 84%
- inhibition at 100 µM [1]: 94%

Compound: CC(C)(C)N(CCC(=O)c1ccc(I)s1)Cc1ccccc1 [Example 405, 2-(N-t-butyl-N-benzyl)aminoethyl-5-iodo-2-thienylketone]
- inhibition at 10 µM [2]: 20%
- inhibition at 30 µM [2]: 40%
- inhibition at 100 µM [2]: 50%
- inhibition at 10 µM [1]: 78%
- inhibition at 30 µM [1]: 73%
- inhibition at 100 µM [1]: 35%

Compound: COC(=O)C(CSSCC(NCCC(=O)c1ccc(I)s1)C(=O)OC)NCCC(=O)c1ccc(I)s1 (stereo not drawn) [Example 406, N,N-bis(5-iodo-2-thiophenoylethyl)cystinemethylester]
- inhibition at 10 µM [2]: 20%
- inhibition at 30 µM [2]: 40%
- inhibition at 100 µM [2]: 50%
- inhibition at 10 µM [1]: 49%
- inhibition at 30 µM [1]: 43%
- inhibition at 100 µM [1]: 62%

Compound: CC(C)(C)N(CCC(=O)c1sccc1Br)Cc1ccccc1 [Example 407, 2-(N-t-butyl-N-benzyl)aminoethyl-3-bromo-2-thienylketone]
- inhibition at 10 µM [2]: 20%
- inhibition at 30 µM [2]: 40%
- inhibition at 100 µM [2]: 50%
- inhibition at 10 µM [1]: 89%
- inhibition at 30 µM [1]: 83%
- inhibition at 100 µM [1]: 77%

Compound: CC(C)(C)N(CCC(=O)c1ncccc1Br)Cc1ccccc1 [Example 408, 2-(N-t-butyl-N-benzyl)aminoethyl-3-bromo-2-pyridylketone]
- inhibition at 10 µM [2]: 20%
- inhibition at 30 µM [2]: 40%
- inhibition at 100 µM [2]: 50%
- inhibition at 10 µM [1]: 76%
- inhibition at 30 µM [1]: 83%
- inhibition at 100 µM [1]: 77%

Compound: COC(=O)C(CSC)NCCC(=O)c1ccc(Br)s1 (stereo not drawn) [Example 409, N,N-bis(2-(5-bromo-2-thiophenoyl)ethyl)cystinemethylester]
- inhibition at 10 µM [2]: 20%
- inhibition at 30 µM [2]: 40%
- inhibition at 100 µM [2]: 50%
- inhibition at 10 µM [1]: 26%
- inhibition at 30 µM [1]: 76%
- inhibition at 100 µM [1]: 81%

Compound: O=C(CCNCCSSCCNCCC(=O)c1ccc(I)s1)c1ccc(I)s1 [Example 410]
- inhibition at 10 µM [2]: 20%
- inhibition at 30 µM [2]: 40%
- inhibition at 100 µM [2]: 50%
- inhibition at 10 µM [1]: 59%
- inhibition at 30 µM [1]: 65%
- inhibition at 100 µM [1]: 88%

Compound: CCC(C)N(CCC(=O)c1ccc(I)s1)C(C)CC (stereo not drawn) [Example 411]
- inhibition at 10 µM [2]: 20%
- inhibition at 30 µM [2]: 40%
- inhibition at 100 µM [2]: 50%
- inhibition at 10 µM [1]: 76%
- inhibition at 30 µM [1]: 80%
- inhibition at 100 µM [1]: 82%

Compound: CCC(C)N(CCC(=O)c1sccc1Br)C(C)CC (stereo not drawn) [Example 413]
- inhibition at 10 µM [2]: 20%
- inhibition at 30 µM [2]: 40%
- inhibition at 100 µM [2]: 50%
- inhibition at 10 µM [1]: 48%
- inhibition at 30 µM [1]: 81%
- inhibition at 100 µM [1]: 78%

Compound: C=CC(=O)c1ccccc1 [Example 8184, acryloylbenzene]
- TG-activity-inhibiting action or protein-crosslinking-inhibiting action (in words) (TGase): high

Compound: C=CC(=O)c1ccc(C)cc1 [Example 8185, 4-methyl-1-acryloylbenzene]
- TG-activity-inhibiting action or protein-crosslinking-inhibiting action (in words) (TGase): high

Compound: C=CC(=O)c1ccc(F)cc1 [Example 8186, 4-fluoro-1-acryloylbenzene]
- TG-activity-inhibiting action or protein-crosslinking-inhibiting action (in words) (TGase): high

Compound: C=CC(=O)c1cc2c(cc1Br)OCO2 [Example 8200, 2-bromo-4,5-dioxymethylene-1-acryloylbenzene]
- TG-activity-inhibiting action or protein-crosslinking-inhibiting action (in words) (TGase): high

Compound: C=CC(=O)c1ccc2c(C)cccc2c1 [Example 8211, 1-methyl-6-acryloylnaphthalene]
- TG-activity-inhibiting action or protein-crosslinking-inhibiting action (in words) (TGase): high

Compound: C=CC(=O)c1ccc2ccccc2c1 [Example 8213, 2-acryloylnaphthalene]
- TG-activity-inhibiting action or protein-crosslinking-inhibiting action (in words) (TGase): high

Compound: C=CC(=O)c1ccc2c(F)cccc2c1 [Example 8257, 1-fluoro-6-acryloylnaphthalene]
- TG-activity-inhibiting action or protein-crosslinking-inhibiting action (in words) (TGase): high

Compound: C=CC(=O)c1ccc(Br)cc1 [Example 8266, 1-acryloyl-4-bromobenzene]
- TG-activity-inhibiting action or protein-crosslinking-inhibiting action (in words) (TGase): high

Compound: C=CC(=O)C(c1ccccc1)c1ccccc1 [Example 8269, Acryloyldiphenylmethane]
- TG-activity-inhibiting action or protein-crosslinking-inhibiting action (in words) (TGase): high

Compound: C=CC(=O)c1cccc2ccccc12 [Example 8293, 1-acryloylnaphthalene]
- TG-activity-inhibiting action or protein-crosslinking-inhibiting action (in words) (TGase): high

Compound: Methyl vinylketone [Example 57]
- TG level (TGase; test compound 3 μmol): 84
- TG level (TGase; test compound 10 μmol): 94
- TG level (TGase; test compound 30 μmol): 37
